Experimental data from patent EP4273147A1, “SUBSTITUTED SPIROLACTAMS, SALTS THEREOF AND THEIR USE AS HERBICIDALLY ACTIVE SUBSTANCES” (Bayer Aktiengesellschaft, priority 2022, dated 2023).

What was measured:
ZEAMX [1] = experiment: Post-emergence effects on crop plants (Table F1); format: in vivo, Zea mays; details: crop plant ZEAMX
Source text: (§1) 2 to 3 weeks after sowing, the test plants were sprayed in the single-leaf stage.

ALOMY [2] = experiment: Herbicidal pre-emergence action (Table A9); format: in vivo, Alopecurus myosuroides; details: application rate 1280 g/ha; visual grading after ca. 3 weeks
Outline: (§2)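 Weed seeds are sown into sandy loam in pots and covered with soil, with two species per pot, one monocot and one dicot.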

ABUTH [3] = experiment: Herbicidal pre-emergence action, section C (Table C1); format: in vivo, Abutilon theophrasti; details: application rate 320 g/ha; visual grading after ca. 3 weeks
STEME [4] = experiment: Herbicidal pre-emergence action (Table A6); format: in vivo, Stellaria media; details: visual grading after ca. 3 weeks
Outline: as §2

GLXMA = experiment: Pre-emergence effects on crop plants (Table D4); format: in vivo, Glycine max; details: crop plant; application rate 80 g/ha; visual grading after ca. 3 weeks
Source text: Seeds of mono- and dicotyledonous weed plants and crop plants were sown, in plastic or organic planting pots, in sandy loam and covered with soil. The compounds according to the invention, formulated in the form of wettable powders (WP) or as emulsifiable concentrates (EC), were applied to the surface of the covering soil as aqueous suspension or emulsion, with the addition of 0.5% of an additive, at an application rate of 600 1 of water/ha (converted).
Following treatment, the pots were placed in a greenhouse and kept under optimum growth conditions for the test plants.

LOLRI [5] = experiment: Herbicidal pre-emergence action (Table A3); format: in vivo, Lolium rigidum; details: application rate 320 g/ha, visual grading after ca. 3 weeks
Outline: as §2

POAAN [6] = experiment: Herbicidal pre-emergence action (Table A7); format: in vivo, Poa annua; details: application rate 320 g/ha, visual grading after ca. 3 weeks
Outline: as §2

LOLRI [7] = experiment: Herbicidal pre-emergence action, section C (Table C7); format: in vivo, Lolium rigidum; details: application rate 320 g/ha; visual grading after ca. 3 weeks
POAAN [8] = experiment: Herbicidal post-emergence action (Table B7); format: in vivo, Poa annua
Outline: (§3)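 Plants grown from seed in a greenhouse are treated at the one-leaf stage, two to three weeks after sowing. They then stay under optimum growth conditions for about three weeks before herbicidal activity is scored visually on a 0–100% scale against untreated controls.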

DIGSA [9] = experiment: Herbicidal pre-emergence action, section C (Table C5); format: in vivo, Digitaria sanguinalis; details: visual grading after ca. 3 weeks
ZEAMX [10] = experiment: Pre-emergence effects on crop plants (Table D1); format: in vivo, Zea mays; details: crop plant; application rate 80 g/ha; visual grading after ca. 3 weeks
ALOMY [11] = experiment: Herbicidal pre-emergence action, section C (Table C2); format: in vivo, Alopecurus myosuroides; details: application rate 320 g/ha; visual grading after ca. 3 weeks
ORYZA [12] = experiment: Pre-emergence effects on crop plants (Table D3); details: crop plant; application rate 320 g/ha; visual grading after ca. 3 weeks
SETVI [13] = experiment: Herbicidal pre-emergence action, section C (Table C10); format: in vivo, Setaria viridis; details: visual grading after ca. 3 weeks
VIOTR [14] = experiment: Herbicidal post-emergence action, section E (Table E10); format: in vivo, Viola tricolor; details: application rate 320 g/ha; assessed visually after ca. 3 weeks
Source text: as §1

TRZAS [15] = experiment: Post-emergence effects on crop plants (Table F2); format: in vivo, Triticum aestivum; details: crop plant TRZAS
Source text: as §1

SETVI [16] = experiment: Herbicidal pre-emergence action (Table A5); format: in vivo, Setaria viridis; details: visual grading after ca. 3 weeks
Outline: as §2

ECHCG [17] = experiment: Herbicidal pre-emergence action, section C (Table C6); format: in vivo, Echinochloa crus-galli; details: application rate 80 g/ha; visual grading after ca. 3 weeks
KCHSC [18] = experiment: Herbicidal pre-emergence action (Table A10); format: in vivo, Kochia scoparia; details: visual grading after ca. 3 weeks
Outline: as §2

AVEFA = experiment: Herbicidal pre-emergence action, section C (Table C4); format: in vivo, Avena fatua; details: application rate 320 g/ha; visual grading after ca. 3 weeks
Source text: Seeds of mono- and dicotyledonous weed plants and crop plants were sown, in plastic or organic planting pots, in sandy loam and covered with soil. The compounds according to the invention, formulated in the form of wettable powders (WP) or as emulsifiable concentrates (EC), were applied to the surface of the covering soil as aqueous suspension or emulsion, with the addition of 0.5% of an additive, at an application rate of 600 1 of water/ha (converted). Following treatment, the pots were placed in a greenhouse and kept under optimum growth conditions for the test plants.

VERPE [19] = experiment: Herbicidal pre-emergence action, section C (Table C11); format: in vivo, Veronica persica; details: application rate 320 g/ha; visual grading after ca. 3 weeks
MATIN [20] = experiment: Herbicidal pre-emergence action (Table A4); format: in vivo, Matricaria inodora; details: visual grading after ca. 3 weeks
Outline: as §2

ABUTH [21] = experiment: Herbicidal post-emergence action, section E (Table E1); format: in vivo, Abutilon theophrasti; details: application rate 320 g/ha; assessed visually after ca. 3 weeks
Source text: as §1

ORYZA [22] = experiment: Post-emergence effects on crop plants (Table F3); format: in vivo, Oryza sativa; details: crop plant ORYZA
Source text: as §1

VERPE [23] = experiment: Herbicidal post-emergence action, section E (Table E9); format: in vivo, Veronica persica; details: application rate 320 g/ha; assessed visually after ca. 3 weeks
Source text: as §1

TRZAS [24] = experiment: Pre-emergence effects on crop plants (Table D2); format: in vivo, Triticum aestivum; details: crop plant; application rate 80 g/ha; visual grading after ca. 3 weeks
VERPE [25] = experiment: Herbicidal pre-emergence action (Table A11); format: in vivo, Veronica persica; details: visual grading after ca. 3 weeks
Outline: as §2

DIGSA [26] = experiment: Herbicidal pre-emergence action (Table A12); format: in vivo, Digitaria sanguinalis; details: application rate 320 g/ha; visual grading after ca. 3 weeks
Outline: as §2

ECHCG [27] = experiment: Herbicidal post-emergence action (Table B3); format: in vivo, Echinochloa crus-galli; details: application rate 1280 g/ha; rated visually after about 3 weeks
Outline: as §3

VIOTR [28] = experiment: Herbicidal pre-emergence action, section C (Table C12); format: in vivo, Viola tricolor; details: visual grading after ca. 3 weeks
ABUTH [29] = experiment: Herbicidal post-emergence action (Table B1); format: in vivo, Abutilon theophrasti; details: application rate 320 g/ha; treated at one-leaf stage; rated visually after about 3 weeks vs untreated controls (100% = plants have died, 0% = like control plants)
Outline: as §3

SETVI [30] = experiment: Herbicidal post-emergence action (Table B8); format: in vivo, Setaria viridis; details: application rate 1280 g/ha
Outline: as §3

MATIN [31] = experiment: Herbicidal pre-emergence action, section C (Table C8); format: in vivo, Matricaria inodora; details: application rate 320 g/ha; visual grading after ca. 3 weeks
ALOMY [32] = experiment: Herbicidal post-emergence action, section E (Table E2); format: in vivo, Alopecurus myosuroides; details: application rate 320 g/ha; assessed visually after ca. 3 weeks
Source text: as §1

MATIN [33] = experiment: Herbicidal post-emergence action (Table B6); format: in vivo, Matricaria inodora; details: application rate 320 g/ha; rated visually after about 3 weeks
Outline: as §3

LOLRI [34] = experiment: Herbicidal post-emergence action, section E (Table E6); format: in vivo, Lolium rigidum; details: application rate 320 g/ha; assessed visually after ca. 3 weeks
Source text: as §1

SETVI [35] = experiment: Herbicidal post-emergence action, section E (Table E8); format: in vivo, Setaria viridis; details: application rate 320 g/ha; assessed visually after ca. 3 weeks
Source text: as §1

ALOMY [36] = experiment: Herbicidal post-emergence action (Table B2); format: in vivo, Alopecurus myosuroides; details: application rate 320 g/ha; rated visually after about 3 weeks
Outline: as §3

KCHSC [37] = experiment: Herbicidal post-emergence action (Table B4); format: in vivo, Kochia scoparia; details: application rate 1280 g/ha; rated visually after about 3 weeks
Outline: as §3

VERPE [38] = experiment: Herbicidal post-emergence action (Table B10); format: in vivo, Veronica persica; details: application rate 320 g/ha
Outline: as §3

STEME [39] = experiment: Herbicidal post-emergence action (Table B9); format: in vivo, Stellaria media; details: application rate 1280 g/ha
Outline: as §3

ECHCG [40] = experiment: Herbicidal post-emergence action, section E (Table E5); format: in vivo, Echinochloa crus-galli; details: application rate 320 g/ha; assessed visually after ca. 3 weeks
Source text: as §1

ECHCG [41] = experiment: Herbicidal pre-emergence action (Table A2); format: in vivo, Echinochloa crus-galli; details: application rate 320 g/ha; visual grading after ca. 3 weeks
Outline: as §2

BRSNW = experiment: Post-emergence effects on crop plants (Table F5); format: in vivo, Brassica napus; details: application rate 320 g/ha, crop plant BRSNW
Source text: as §1

ABUTH [42] = experiment: Herbicidal pre-emergence action (Table A1); format: in vivo, Abutilon theophrasti; details: application rate 1280 g/ha; visual grading after ca. 3 weeks vs untreated controls (100% = plants have died off, 0% = as control plants)
Outline: as §2

AMARE = experiment: Herbicidal post-emergence action (Table B11); format: in vivo, Amaranthus retroflexus; details: application rate 1280 g/ha
Outline: as §3

LOLRI [43] = experiment: Herbicidal post-emergence action (Table B5); format: in vivo, Lolium rigidum; details: application rate 1280 g/ha; rated visually after about 3 weeks
Outline: as §3

Compound: O=C1N(Cc2ccccc2Cl)CCCC12CCN(Cc1cccc(F)c1F)C2=O (racemic) [I-035]
- post-emergence activity against ZEAMX (ZEAMX [1]; application rate 80 g/ha): 0%
- pre-emergence activity against ALOMY (ALOMY [2]): 90%
- pre-emergence activity against ABUTH (ABUTH [3]): 80%
- pre-emergence activity against STEME (STEME [4]; application rate 1280 g/ha): 90%
- pre-emergence activity against GLXMA (GLXMA): 0%
- pre-emergence activity against LOLRI (LOLRI [5]): 100%
- pre-emergence activity against POAAN (POAAN [6]): 100%
- pre-emergence activity against LOLRI (LOLRI [7]): 90%
- post-emergence activity against POAAN (POAAN [8]; application rate 1280 g/ha): 90%
- pre-emergence activity against DIGSA (DIGSA [9]; application rate 320 g/ha): 100%
- pre-emergence activity against ZEAMX (ZEAMX [10]): 0%
- pre-emergence activity against ALOMY (ALOMY [11]): 80%
- pre-emergence activity against ORYZA (ORYZA [12]): 0%
- pre-emergence activity against SETVI (SETVI [13]; application rate 320 g/ha): 100%
- post-emergence activity against VIOTR (VIOTR [14]): 80%
- post-emergence activity against TRZAS (TRZAS [15]; application rate 320 g/ha): 0%
- pre-emergence activity against SETVI (SETVI [16]; application rate 1280 g/ha): 100%
- pre-emergence activity against ECHCG (ECHCG [17]): 100%
- pre-emergence activity against KCHSC (KCHSC [18]; application rate 1280 g/ha): 90%
- pre-emergence activity against AVEFA (AVEFA): 100%
- pre-emergence activity against VERPE (VERPE [19]): 90%
- pre-emergence activity against MATIN (MATIN [20]; application rate 1280 g/ha): 90%
- post-emergence activity against ABUTH (ABUTH [21]): 90%
- post-emergence activity against ORYZA (ORYZA [22]; application rate 320 g/ha): 0%
- post-emergence activity against VERPE (VERPE [23]): 80%
- pre-emergence activity against TRZAS (TRZAS [24]): 0%
- pre-emergence activity against VERPE (VERPE [25]; application rate 1280 g/ha): 90%
- pre-emergence activity against DIGSA (DIGSA [26]): 100%
- post-emergence activity against ECHCG (ECHCG [27]): 90%
- pre-emergence activity against VIOTR (VIOTR [28]; application rate 80 g/ha): 90%

Compound: O=C1N(Cc2cccc(F)c2F)CCCC12CCCN(Cc1c(F)cccc1F)C2=O (racemic) [I-008, 8-[(2,3-difluorophenyl)methyl]-2-[(2,6-difluorophenyl)methyl]-2,8-diazaspiro[5.5]undecane-1,7-dione]
- post-emergence activity against ZEAMX (ZEAMX [1]; application rate 320 g/ha): 0%
- pre-emergence activity against ALOMY (ALOMY [2]): 90%
- pre-emergence activity against STEME (STEME [4]; application rate 320 g/ha): 90%
- post-emergence activity against ABUTH (ABUTH [29]): 90%
- pest or weed control at 320 g/ha (LOLRI [5]; Lolium rigidum, pre-emergence, 504 h, read-out: pre-emergence activity against LOLRI): 100%
- pest or weed control at 320 g/ha (POAAN [6]; Poa annua, pre-emergence, 504 h, read-out: pre-emergence activity against POAAN): 100%
- pre-emergence activity against LOLRI (LOLRI [7]): 90%
- post-emergence activity against POAAN (POAAN [8]; application rate 320 g/ha): 90%
- pre-emergence activity against DIGSA (DIGSA [9]; application rate 80 g/ha): 100%
- post-emergence activity against SETVI (SETVI [30]): 90%
- pre-emergence activity against MATIN (MATIN [31]): 80%
- pre-emergence activity against ALOMY (ALOMY [11]): 90%
- post-emergence activity against ALOMY (ALOMY [32]): 90%
- post-emergence activity against MATIN (MATIN [33]): 90%
- post-emergence activity against LOLRI (LOLRI [34]): 90%
- pre-emergence activity against SETVI (SETVI [13]; application rate 80 g/ha): 100%
- post-emergence activity against TRZAS (TRZAS [15]; application rate 80 g/ha): 0%
- post-emergence activity against SETVI (SETVI [35]): 90%
- pre-emergence activity against SETVI (SETVI [16]; application rate 320 g/ha): 100%
- post-emergence activity against ALOMY (ALOMY [36]): 90%
- post-emergence activity against KCHSC (KCHSC [37]): 90%
- pre-emergence activity against ECHCG (ECHCG [17]): 100%
- pre-emergence activity against KCHSC (KCHSC [18]; application rate 320 g/ha): 90%
- post-emergence activity against VERPE (VERPE [38]): 90%
- post-emergence activity against STEME (STEME [39]): 90%
- post-emergence activity against ECHCG (ECHCG [40]): 90%
- pre-emergence activity against VERPE (VERPE [19]): 80%
- pre-emergence activity against MATIN (MATIN [20]; application rate 320 g/ha): 100%
- pre-emergence activity against ECHCG (ECHCG [41]): 100%
- post-emergence activity against ORYZA (ORYZA [22]; application rate 80 g/ha): 0%
- post-emergence activity against VERPE (VERPE [23]): 80%
- post-emergence activity against BRSNW (BRSNW): 0%
- pre-emergence activity against ABUTH (ABUTH [42]): 90%
- pre-emergence activity against VERPE (VERPE [25]; application rate 320 g/ha): 90%
- pre-emergence activity against DIGSA (DIGSA [26]): 100%
- post-emergence activity against AMARE (AMARE): 90%
- post-emergence activity against LOLRI (LOLRI [43]): 100%
- pre-emergence activity against VIOTR (VIOTR [28]; application rate 320 g/ha): 80%
